In patent publication US10941138B2, “Quinoline and isoquinoline derivatives for treating pain and pain related conditions” (ESTEVE PHARMACEUTICALS, S.A., priority 2016, dated 2021):

Molecular target: human α2δ-1 subunit of Cav2.2 calcium channel (Homo sapiens (Human), UniProt P54289)
Test: Binding assay to human α2δ-1 subunit of Cav2.2 calcium channel ([3H]-Gabapentin)
Settings: Table 1, human α2δ-1 enriched membranes, read-out: Ki (nM) alpha2delta Hum
Description: Binding Assay to Human α2δ-1 Subunit of Cav2.2 Calcium Channel.
Human α2δ-1 enriched membranes (2.5 μg) were incubated with 15 nM of radiolabeled [3H]-Gabapentin in assay buffer containing Hepes-KOH 10 mM, pH 7.4.
NSB (non specific binding) was measured by adding 10 μM pregabalin. The binding of the test compound was measured at five different concentrations. After 60 min incubation at 27° C., binding reaction was terminated by filtering through Multiscreen GF/C (Millipore) presoaked in 0.5% polyethyleneimine in Vacuum Manifold Station, followed by 3 washes with ice-cold filtration buffer containing 50 mM Tris-HCl, pH 7.4. Filter plates were dried at 60° C. for 1 h and 30 μl of scintillation cocktail were added to each well before radioactivity reading.
Readings were performed in a Trilux 1450 Microbeta radioactive counter (Perkin Elmer).

Chain of human α2δ-1 subunit of Cav2.2 calcium channel (P54289 25-1103): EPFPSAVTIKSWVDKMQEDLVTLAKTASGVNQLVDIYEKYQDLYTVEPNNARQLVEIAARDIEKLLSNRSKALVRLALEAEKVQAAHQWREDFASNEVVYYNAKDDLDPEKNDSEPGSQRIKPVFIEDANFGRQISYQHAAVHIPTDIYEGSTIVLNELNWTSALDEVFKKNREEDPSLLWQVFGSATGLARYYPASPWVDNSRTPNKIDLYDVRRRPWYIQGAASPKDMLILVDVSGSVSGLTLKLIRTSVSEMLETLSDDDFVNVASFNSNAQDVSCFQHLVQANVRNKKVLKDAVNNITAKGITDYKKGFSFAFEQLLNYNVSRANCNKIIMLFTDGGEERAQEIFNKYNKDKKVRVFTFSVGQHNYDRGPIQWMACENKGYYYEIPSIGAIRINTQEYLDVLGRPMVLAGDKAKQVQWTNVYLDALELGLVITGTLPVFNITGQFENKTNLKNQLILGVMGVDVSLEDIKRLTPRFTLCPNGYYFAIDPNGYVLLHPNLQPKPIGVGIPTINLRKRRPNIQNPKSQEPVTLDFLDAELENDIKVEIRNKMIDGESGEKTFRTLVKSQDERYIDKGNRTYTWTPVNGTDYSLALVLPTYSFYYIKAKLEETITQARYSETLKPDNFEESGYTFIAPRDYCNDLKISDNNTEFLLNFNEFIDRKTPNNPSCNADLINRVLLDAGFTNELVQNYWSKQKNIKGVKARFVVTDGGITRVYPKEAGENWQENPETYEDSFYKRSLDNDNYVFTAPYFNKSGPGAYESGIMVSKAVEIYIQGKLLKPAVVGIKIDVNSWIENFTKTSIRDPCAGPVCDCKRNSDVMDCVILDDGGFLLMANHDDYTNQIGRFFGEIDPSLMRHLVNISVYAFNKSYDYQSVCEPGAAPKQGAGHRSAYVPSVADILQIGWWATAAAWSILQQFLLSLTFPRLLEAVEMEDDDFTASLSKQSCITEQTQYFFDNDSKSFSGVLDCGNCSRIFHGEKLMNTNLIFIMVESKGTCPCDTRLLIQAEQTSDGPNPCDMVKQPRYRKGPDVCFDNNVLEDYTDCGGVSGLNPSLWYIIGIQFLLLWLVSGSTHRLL

Row | SMILES | Ki
1 | CNCC[C@@H](Oc1ccc2ncccc2c1)c1cccs1 [Example 7, (R)—N-Methyl-3-(quinolin-6-yloxy)-3-(thiophen-2-yl)propan-1-amine] | ≥ 3000 nM
2 | CN(C)CCC(Oc1nccc2ccccc12)c1cccs1 (stereo not drawn) [Example 8, 3-(isoquinolin-1-yloxy)-N,N-dimethyl-3-(thiophen-2-yl)propan-1-amine] | ≥ 3000 nM
3 | CNCCC(Oc1cccc2ccncc12)C1CCOCC1 (stereo not drawn) [Example 19, 3-(isoquinolin-8-yloxy)-N-methyl-3-(tetrahydro-2H-pyran-4-yl)propan-1-amine] | ≥ 3000 nM
4 | CNCCC(Oc1cccc2ncccc12)C1CCOCC1 (stereo not drawn) [Example 20, N-methyl-3-(quinolin-5-yloxy)-3-(tetrahydro-2H-pyran-4-yl)propan-1-amine] | ≥ 3000 nM
5 | CNCCC(Oc1cccc2ccncc12)c1cccnc1 (stereo not drawn) [Example 21, 3-(isoquinolin-8-yloxy)-N-methyl-3-(pyridin-3-yl)propan-1-amine] | ≥ 3000 nM
6 | CNCCC(Oc1cccc2ccncc12)c1ccccn1 (stereo not drawn) [Example 22, 3-(isoquinolin-8-yloxy)-N-methyl-3-(pyridin-2-yl)propan-1-amine] | ≥ 3000 nM
7 | CNCCC(Oc1cccc2cnccc12)c1ccccn1 (stereo not drawn) [Example 23, 3-(isoquinolin-5-yloxy)-N-methyl-3-(pyridin-2-yl)propan-1-amine] | ≥ 3000 nM
8 | CNCCC(Oc1cccc2ccncc12)c1cccc(C(F)(F)F)n1 (stereo not drawn) [Example 24, 3-(isoquinolin-8-yloxy)-N-methyl-3-(6-(trifluoromethyl)pyridin-2-yl)propan-1-amine] | ≥ 3000 nM
9 | CNCCC(Oc1cccc2ccncc12)c1ccncc1 (stereo not drawn) [Example 27, 3-(isoquinolin-8-yloxy)-N-methyl-3-(pyridin-4-yl)propan-1-amine] | ≥ 3000 nM
10 | CNCCC(Oc1cccc2cnccc12)c1ccc(C(F)(F)F)nc1 (stereo not drawn) [Example 28, 3-(isoquinolin-5-yloxy)-N-methyl-3-(6-(trifluoromethyl)pyridin-3-yl)propan-1-amine] | ≥ 3000 nM
11 | CNCCC(Oc1cccc2cnccc12)c1cc(C(F)(F)F)ccn1 (stereo not drawn) [Example 29, 3-(isoquinolin-5-yloxy)-N-methyl-3-(4-(trifluoromethyl)pyridin-2-yl)propan-1-amine] | ≥ 3000 nM
12 | CNCCC(Oc1cccc2ncccc12)c1nc(C)cs1 (stereo not drawn) [Example 32, N-methyl-3-(4-methylthiazol-2-yl)-3-(quinolin-5-yloxy)propan-1-amine] | 100 to 500 nM
13 | CNCCC(Oc1cccc2ncccc12)c1ccncc1 (stereo not drawn) [Example 35, N-methyl-3-(pyridin-4-yl)-3-(quinolin-5-yloxy)propan-1-amine] | ≥ 3000 nM
14 | CNCCC(Oc1cccc2cnccc12)c1cccc(C(F)(F)F)n1 (stereo not drawn) [Example 37, 3-(isoquinolin-5-yloxy)-N-methyl-3-(6-(trifluoromethyl)pyridin-2-yl)propan-1-amine] | ≥ 3000 nM
15 | CNCCC(Oc1cccc2ncccc12)c1cccc(C(F)(F)F)n1 (stereo not drawn) [Example 38, N-methyl-3-(quinolin-5-yloxy)-3-(6-(trifluoromethyl)pyridin-2-yl)propan-1-amine] | ≥ 3000 nM
16 | CNCCC(Oc1cccc2ncccc12)c1ccc(C(F)(F)F)nc1 (stereo not drawn) [Example 40, N-methyl-3-(quinolin-5-yloxy)-3-(6-(trifluoromethyl)pyridin-3-yl)propan-1-amine] | ≥ 3000 nM
17 | CN(C)CCC(Oc1cccc2cnccc12)c1cccs1 (stereo not drawn) [Example 43, 3-(isoquinolin-5-yloxy)-N,N-dimethyl-3-(thiophen-2-yl)propan-1-amine] | 500 to 3000 nM
18 | CNCC[C@H](Oc1ccc2cnccc2c1)c1cccs1 [Example 55, (S)-3-(isoquinolin-6-yloxy)-N-methyl-3-(thiophen-2-yl)propan-1-amine] | 500 to 3000 nM
19 | CNCCC(Oc1cccc2ncccc12)c1ccsc1 (stereo not drawn) [Example 57, N-methyl-3-(quinolin-5-yloxy)-3-(thiophen-3-yl)propan-1-amine] | 100 to 500 nM
20 | CNCC[C@@H](Oc1cccc2c(C)nccc12)c1cccs1 [Example 59, (R)-N-methyl-3-((1-methylisoquinolin-5-yl)oxy)-3-(thiophen-2-yl)propan-1-amine] | < 100 nM
21 | CNCC[C@@H](Oc1cccc2ncccc12)c1ccsc1 [Example 63, (R)-N-methyl-3-(quinolin-5-yloxy)-3-(thiophen-3-yl)propan-1-amine] | 100 to 500 nM
22 | CNCC[C@@H](Oc1cccc2nc(C)cc(C)c12)c1cccs1 [Example 66, (R)-3-((2,4-dimethylquinolin-5-yl)oxy)-N-methyl-3-(thiophen-2-yl)propan-1-amine] | < 100 nM
23 | CNCCC(Oc1ccc2cccnc2c1)c1cccs1 (stereo not drawn) [Example 73, N-methyl-3-(quinolin-7-yloxy)-3-(thiophen-2-yl)propan-1-amine] | 500 to 3000 nM
24 | CNCCC(Oc1cccc2c(C#N)nccc12)c1cccs1 (stereo not drawn) [Example 75, 5-(3-(Methylamino)-1-(thiophen-2-yl)propoxy)isoquinoline-1-carbonitrile] | 100 to 500 nM

More lines, now with the values ahead:

Row | Ki | SMILES
25 | ≥ 3000 nM | CNCCC(Oc1ccnc2ccccc12)c1cccs1 (stereo not drawn) [Example 4, N-methyl-3-(quinolin-4-yloxy)-3-(thiophen-2-yl)propan-1-amine]
26 | < 100 nM | CCNCCC(Oc1cccc2cnccc12)c1cccs1 (stereo not drawn) [Example 5, N-ethyl-3-(isoquinolin-5-yloxy)-3-(thiophen-2-yl)propan-1-amine]
27 | ≥ 3000 nM | c1ccc(CNCCC(Oc2cccc3cnccc23)c2cccs2)cc1 (stereo not drawn) [Example 6, N-benzyl-3-(isoquinolin-5-yloxy)-3-(thiophen-2-yl)propan-1-amine]
28 | < 100 nM | CNCCC(Oc1cccc2c(C(N)=O)nccc12)c1cccs1 (stereo not drawn) [Example 16, 5-(3-(methylamino)-1-(thiophen-2-yl)propoxy)isoquinoline-1-carboxamide]
29 | ≥ 3000 nM | CNCCC(Oc1cccc2cnccc12)c1cncc(Cl)c1 (stereo not drawn) [Example 26, 3-(5-chloropyridin-3-yl)-3-(isoquinolin-5-yloxy)-N-methylpropan-1-amine]
30 | ≥ 3000 nM | CNCCC(Oc1cccc2ncccc12)c1cc(C(F)(F)F)ccn1 (stereo not drawn) [Example 31, N-methyl-3-(quinolin-5-yloxy)-3-(4-(trifluoromethyl)pyridin-2-yl)propan-1-amine]
31 | ≥ 3000 nM | CNCCC(Oc1cccc2ncccc12)c1ccccn1 (stereo not drawn) [Example 33, N-methyl-3-(pyridin-2-yl)-3-(quinolin-5-yloxy)propan-1-amine]
32 | 500 to 3000 nM | CNCCC(Oc1cccc2ncccc12)c1ncc(C)s1 (stereo not drawn) [Example 34, N-methyl-3-(5-methylthiazol-2-yl)-3-(quinolin-5-yloxy)propan-1-amine]
33 | ≥ 3000 nM | CNCCC(Oc1cccc2ncccc12)c1cccnc1 (stereo not drawn) [Example 36, N-methyl-3-(pyridin-3-yl)-3-(quinolin-5-yloxy)propan-1-amine]
34 | ≥ 3000 nM | CNCCC(Oc1cccc2ccncc12)c1ccc(C(F)(F)F)nc1 (stereo not drawn) [Example 39, 3-(isoquinolin-8-yloxy)-N-methyl-3-(6-(trifluoromethyl)pyridin-3-yl)propan-1-amine]
35 | ≥ 3000 nM | CNCC[C@H](Oc1cccc2ccnc(C)c12)c1cccs1 [Example 64, (S)-N-methyl-3-((1-methylisoquinolin-8-yl)oxy)-3-(thiophen-2-yl)propan-1-amine]
36 | ≥ 3000 nM | CNCCC(Oc1cccc2ccncc12)c1nccs1 (stereo not drawn) [Example 70, 3-(Isoquinolin-8-yloxy)-N-methyl-3-(thiazol-2-yl)propan-1-amine]
